Laboratory results from US8361797B2, “Myeloma cell culture in transferrin-free low iron medium” (Medimmune Limited, priority 2003, dated 2013).
“Also recorded” adds a separate entry of the source. Like-named read-outs stand apart in the source and are kept apart here.

Legend:
[1] = tested on: recombinant NS0 mouse myeloma cell line selected using a G418 selection system; conditions: 1 mg/L FAC vs 1 mg/L transferrin and 0.1 mg/L FAC
Description: After 5 days, flasks were subcultured and then allowed to follow the full growth cycle.

hybridoma cells = conditions: cited from earlier work
NSO myeloma cell lines = conditions: FAC alone, 0.2 mg/L; cited from earlier work
cell line A = conditions: 1 mg/L FAC, serum free and protein free GSF medium
Description: Innoculum for these fermentations was provided by subculture of the cells in media the same as that used in the fermentations.

hybridoma cell lines = conditions: cited from earlier work
[2] = tested on: GS-NSO cell lines (Cell Lines C, D and E); conditions: protein free FAC medium, 4.5 L and 100 L
Experimental: Cell Line C was grown at both 4.5 and 100 L scale, Cell Line D at 4.5 L scale and Cell Line E at 100 L scale.

[3] = tested on: recombinant GS-NS0 mouse myeloma cell line (Cell line A); format: cell-based
[4] = tested on: mouse hybridoma cell line (9E10)
Experimental: A mouse hybridoma cell line (9E10), producing anti-Myc antibody, previously subcultured in modified CDSS supplemented with 1 mg/L human transferrin and 6 mM Glutamine was used to inoculate experimental flasks at an inoculation density of 1×10^5 cells/ml.
Flasks were subcultured by dilution with fresh medium back to 1×10^5 cells/ml at 3 day intervals. On the third subculture flasks were allowed to overgrow. Cell counts were performed using the trypan blue exclusion method.

[5] = tested on: recombinant GS-NS0 mouse myeloma cell line (Cell line A); format: cell-based; remark: listed apart in the source
[6] = tested on: recombinant GS-NS0 cell line (Cell line B)
Experimental: Cells resuspended in this medium were then used to inoculate experimental flasks at an inoculation density of 2×10^5 cells/ml.
All flasks were also supplemented with 1 ml/L of a 1000× concentrated cholesterol and fatty acid supplement (CLOC).
Flasks were subcultured by dilution with fresh medium back to 2×10^5 cells/ml at 5 day intervals. On the second subculture flasks were allowed to overgrow to saturation. Cell counts were performed using the trypan blue exclusion method. Antibody titre analysis was performed using analytical protein A hplc against a homologous standard.

Molecule: ferric ammonium citrate [FAC]
- growth vs transferrin containing medium [1]: Equivalent growth
- support of hybridoma growth (hybridoma cells; 10 mg/L, agitated suspension culture, WO 94/02592): this was not the case in agitated suspension culture
- support of hybridoma growth (hybridoma cells; FAC alone, between 0.1 and 10 mg/L, no transferrin or tropolone): incapable of supporting the growth of hybridoma cells
- optimum concentration (hybridoma cells; FAC used with tropolone): 0.2 mg/L
- support of NSO myeloma growth (NSO myeloma cell lines): could not support the growth of the NSO myeloma cell lines
- growth and antibody production (cell line A): able to support good growth and antibody production in both media
- support of hybridoma growth (hybridoma cell lines; 10 mg/L, static culture, WO 94/02592): able to support hybridoma growth in static culture
- growth and antibody productivity [2]: supports good growth of, and antibody productivity in, a wide range of cell lines
- proliferation over subcultures ([3]; 0.2 mg/L): able to proliferate after the first division, but was then unable to grow further
- concentration able to support continuous cell growth ([3]; duplicate of the experiment (FIG. 1c)): 0.2 mg/L
- concentration able to support continuous cell growth over several subcultures and during the overgrow culture ([3]; modified CDSS, no transferrin, agitated suspension, three subcultures at 3 day intervals): ≥ 0.4 mg/L
- concentration giving growth equivalent to transferrin containing control (maximum viable cell number and area underneath the growth curve) ([3]; overgrow cultures): ≥ 1 mg/L
- proliferation over subcultures ([4]; 0.2 mg/L): unable to proliferate beyond the first subculture
- proliferation over subcultures ([4]; 0.4 mg/L): unable to proliferate beyond the first subculture
- proliferation over subcultures ([4]; 1 mg/L): unable to proliferate beyond the second subculture
- proliferation over subcultures ([4]; 2 mg/L): unable to proliferate beyond the second subculture
- proliferation over subcultures ([4]; 10 mg/L): unable to proliferate beyond the second subculture
- FAC concentration required by hybridoma cell lines relative to GS-NS0 cells for continuous cell growth ([4]; agitated suspension culture): > 100 ×
- concentration required to support growth ([4]; hybridoma 9E10, agitated suspension): ≥ 50 mg/L
- concentration required for growth equivalent to transferrin containing control, maximum viable cell number ([4]; overgrow cultures): 100 mg/L
- concentration giving growth equivalent to transferrin containing control, cumulative cell hours (CCH) ([4]; overgrow cultures, integral of area underneath growth curve): 50 mg/L
- more antibody produced at 0.4 mg/L than at 100 mg/L ([5]; culture with 0.4 mg/L vs culture with 100 mg/L): over 30%
- antibody titre compared to the transferrin containing control ([5]; overgrow cultures, sandwich ELISA): at least as much, and in the majority of the cases significantly more antibody
- concentration supporting growth equivalent to positive control culture ([6]; control 5 μM tropolone and 0.4 mg/L FAC, GSF medium): ≥ 0.8 mg/L
- concentration supporting antibody production at least equivalent to control ([6]; overgrow cultures, protein A hplc): ≥ 0.8 mg/L

Molecule: O=C([O-])CC(O)(CC(=O)[O-])C(=O)[O-].[Fe+3] [FC, ferric citrate]
- concentration required to support hybridoma cell growth with equivalence to transferrin (hybridoma cell lines): 500 µM
- concentration giving growth equivalent to transferrin containing control (maximum viable cell number and area underneath the growth curve) [3]: ≥ 10 mg/L
- concentration of FC relative to FAC required for cell growth equivalent to transferrin [3]: 10 ×
- proliferation over subcultures [3]: unable to proliferate beyond the first subculture; also recorded: unable to proliferate beyond the second subculture
- antibody titre compared to the transferrin containing control [5]: at least as much, and in the case of 10 mg/L FC significantly more antibody

Molecule: O=c1cccccc1O [tropolone, reference compound]
- optimum concentration (hybridoma cells; tropolone used with FAC): 5 µM
